# Key:
# [1] = Toxicity in mice 24 hr after ip administration; format: organism-based; conditions: mouse, in vivo
# [2] = Second order rate constant was determined; format: functional
# [3] = Half life was determined; format: ADME; conditions: rat
# [4] = Rate constant was determined; format: functional
Compound,LD50 at 24 h [1] [mg/kg],Second order [2] [M/s],half-life [3] [min],Rate constant [4] [M/s]
CC(=O)Nc1ccc(O)cc1 [ACETAMINOPHEN],500,–,–,–
CC(=O)N=C1C=CC(=O)C=C1,20,0.625,11,0.00011
